Patent US20230303540A1 (Merck Sharp & Dohme LLC, priority 2020, published 2023)

Molecular target: GST-tagged truncated human mutant G2019S LRRK2 (Homo sapiens, UniProt Q5S007, G2019S)
Assay: LRRK2 G2019S Km ATP LanthaScreen assay
Format: biochemical
Conditions: 134 μM ATP (Km ATP), LRRKtide substrate, mean IC50 values; read-out: LRRK2 pIC50 (converted)
Outline: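 LanthaScreen TR-FRET read with fluorescein-LRRKtide and 134 μM ATP (Km) in Tris pH 8.5/10 mM MgCl2 buffer. The enzyme was preincubated 15 min with compound at room temperature, and the reaction ran 90 min at ambient temperature. Stopped with EDTA plus Tb anti-phospho-LRRKtide antibody; the 520/495 nm ratio gave a 4-parameter logistic IC50, mean of several runs.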

| Compound | IC50 [nM] |
| --- | --- |
| Cn1cc(Nc2ncc3ccc(N4C(=O)C5CCC4C5)cc3n2)c(C(F)(F)F)n1 (stereo not drawn) [Ex-7.9, 2-(2-{[1-methyl-3-(trifluoromethyl)-1H-pyrazol-4-yl]amino}quinazolin-7-yl)-2-azabicyclo[2.2.1]heptan-3-one] | 34 |
| CN(C)c1cc2nc(Nc3cnn(C4CC4(F)F)c3Cl)ncc2cc1Cl (single isomer, unassigned) [Ex-3.42, (R) or (S) 6-chloro-N~2~-[5-chloro-1-(2,2-difluorocyclopropyl)-1H-pyrazol-4-yl]-N~7~,N~7~-dimethylquinazoline-2,7-diamine] | 7.37 |
| C[C@@]1(N2CCN(c3cc4nc(Nc5cnn(C6CC6)c5C(F)F)ncc4cc3Cl)CC2)COC[C@@H]1O [Ex-6.56, (3R,4R)-4-(4-(6-chloro-2-((1-cyclopropyl-5-(difluoromethyl)-1H-pyrazol-4-yl)amino)quinazolin-7-yl)piperazin-1-yl)-4-methyltetrahydrofuran-3-ol] | 0.08 |
| CC1(n2ncc(Nc3ncc4cc(Cl)c(N5CCC(N6CC(F)(F)C6)CC5)cc4n3)c2Cl)CC1 [Ex-4.32, 6-chloro-N-[5-chloro-1-(1-methylcyclopropyl)-1H-pyrazol-4-yl]-7-[4-(3,3-difluoroazetidin-1-yl)piperidin-1-yl]quinazolin-2-amine] | 2.02 |
| CC1(N2CCN(c3cc4nc(Nc5cnn(C6(C)CC6)c5)ncc4cc3Cl)CC2)COC1 [Ex-4.16, 6-chloro-N-[1-(1-methylcyclopropyl)-1H-pyrazol-4-yl]-7-[4-(3-methyloxetan-3-yl)piperazin-1-yl]quinazolin-2-amine] | 1.12 |
| Cc1nsc(Nc2ncc3ccc(N4C(=O)OC[C@@H]4C)cc3n2)c1C1CC1 [Ex-7.8, (4S)-3-{2-[(4-cyclopropyl-3-methyl-1,2-thiazol-5-yl)amino]quinazolin-7-yl}-4-methyl-1,3-oxazolidin-2-one] | 11 |
| Cc1c(Nc2ncc3cc(Cl)c(N4CCN(C5COCC5O)CC4)cc3n2)cnn1C1CC1(F)F (single isomer, unassigned) [Ex-6.45, (3S,4S) or (3R,4R) 4-[4-(6-chloro-2-{[1-(2,2-(R) or (S)difluorocyclopropyl)-5-methyl-1H-pyrazol-4-yl]amino}quinazolin-7-yl)piperazin-1-yl]oxolan-3-ol] | 0.843 |
| Cc1c(Nc2ncc3cc(Cl)c(N4CCC(O)CC4)cc3n2)cnn1C1CC1 [Ex-3.14, 1-{6-chloro-2-[(1-cyclopropyl-5-methyl-1H-pyrazol-4-yl)amino]quinazolin-7-yl}piperidin-4-ol] | 0.106 |
| CC1(N2CCN(c3cc4nc(Nc5cnn(C(F)F)c5Cl)ncc4cc3Cl)CC2)COCC1O (single isomer, unassigned) [Ex-3.59, (3R,4R) or (3S,4S) 4-(4-(6-chloro-2-((5-chloro-1-(difluoromethyl)-1H-pyrazol-4-yl)amino)quinazolin-7-yl)piperazin-1-yl)-4-methyltetrahydrofuran-3-ol] | 0.178 |
| C[C@H]1COC(=O)N1c1ccc2cnc(Nc3cnsc3)nc2c1 [Ex-8.7, (4S)-4-methyl-3-{2-[(1,2-thiazol-4-yl)amino]quinazolin-7-yl}-1,3-oxazolidin-2-one] | 5.2 |
| Cc1c(Nc2ncc3cc(Cl)c(N4CCC(C)(O)C(C)C4)cc3n2)cnn1C1CC1 (single isomer, unassigned) [Ex-3.48, (3R,4R) or (3S,4S) or (3R,4S) or (3S,4R) 1-{6-chloro-2-[(1-cyclopropyl-5-methyl-1H-pyrazol-4-yl)amino]quinazolin-7-yl}-3,4-dimethylpiperidin-4-ol] | 1.46 |
| CC1(N2CCN(c3cc4nc(Nc5cnn(C6CC6(F)F)c5Cl)ncc4cc3Cl)CC2)CCOC1 (single isomer, unassigned) [Ex-3.60, (R or S) 6-chloro-N-(5-chloro-1-((S) or (R) 2,2-difluorocyclopropyl)-1H-pyrazol-4-yl)-7-(4-(3-methyltetra-hydrofuran-3-yl)piperazin-1-yl) quinazolin-2-amine] | 0.2 |
| C[C@H]1COC(=O)N1c1ccc2cnc(Nc3cnn(CC(F)(F)F)c3)nc2c1 [Ex-7.21, (4S)-4-methyl-3-(2-{[1-(2,2,2-trifluoroethyl)-1H-pyrazol-4-yl]amino}quinazolin-7-yl)-1,3-oxazolidin-2-one] | 0.625 |
| CC(C)(C)Cn1cc(Nc2ncc3cc(Cl)c(N4CCN(C5(C)COC5)CC4)cc3n2)cn1 [Ex-4.64, 6-chloro-N-[1-(2,2-dimethylpropyl)-1H-pyrazol-4-yl]-7-[4-(3-methyloxetan-3-yl)piperazin-1-yl]quinazolin-2-amine] | 9.73 |
| Cc1c(Nc2ncc3cc(Cl)c(N4C[C@H]5CC[C@@H](C4)[C@@]5(C)O)cc3n2)cnn1C1CC1 [Ex-3.27, (8-syn)-3-{6-chloro-2-[(1-cyclopropyl-5-methyl-1H-pyrazol-4-yl)amino]quinazolin-7-yl}-8-methyl-3-azabicyclo[3.2.1] octan-8-ol] | 0.486 |
| CC1(N2CCN(c3cc4nc(Nc5cnn(CC6(C#N)CC6)c5)ncc4cc3Cl)CC2)COC1 [Ex-4.53, 1-{[4-({6-chloro-7-[4-(3-methyloxetan-3-yl)piperazin-1-yl]quinazolin-2-yl}amino)-1H-pyrazol-1-yl]methyl}cyclopropane-1-carbonitrile] | 1.82 |
| OC[C@H]1CCN(c2cc3nc(Nc4cnn(CC(F)F)c4Cl)ncc3cc2Cl)C1 [Ex-1.20, [(3S)-1-(6-chloro-2-{[5-chloro-1-(2,2-difluoroethyl)-1H-pyrazol-4-yl]amino}quinazolin-7-yl)pyrrolidin-3-yl]methanol] | 8.23 |
| Cc1c(Nc2ncc3cc(Cl)c(N4CCC(C)(O)CC4C)cc3n2)cnn1C1CC1 (single isomer, unassigned) [Ex-9.1, (2R,4S or 2S,4R, or 2S,4S, or 2R,4R)-1-(6-Chloro-2-((1-cyclopropyl-5-methyl-1H-pyrazol-4-yl)amino)quinazolin-7-yl)-2,4-dimethylpiperidin-4-ol] | 4.68 |
| CC(C)Nc1ccc2cnc(Nc3cnn(C4CCN(C5(C)COC5)CC4)c3)nc2c1 [Ex-4.9, N~2~-{1-[1-(3-methyloxetan-3-yl)piperidin-4-yl]-1H-pyrazol-4-yl}-N~7~-(propan-2-yl)quinazoline-2,7-diamine] | 9.16 |
| Cc1c(Nc2ncc3cc(Cl)c(N4CCN(C5(C)COC(C)(C)C5)CC4)cc3n2)cnn1C1CC1 (single isomer, unassigned) [Ex-12.2] | 0.721 |
| FC(F)Cn1ncc(Nc2ncc3cc(Cl)c(N4CCC(N5CCCC5)CC4)cc3n2)c1Cl [Ex-1.16, 6-chloro-N-[5-chloro-1-(2,2-difluoroethyl)-1H-pyrazol-4-yl]-7-[4-(pyrrolidin-1-yl)piperidin-1-yl]quinazolin-2-amine] | 16 |
| CC1CCC12CN(c1cc3nc(Nc4cnn(C5(C)CC5)c4Cl)ncc3cc1Cl)C2 (stereo not drawn) [Ex-4.24, 6-chloro-N-[5-chloro-1-(1-methylcyclopropyl)-1H-pyrazol-4-yl]-7-(5-methyl-2-azaspiro[3.3]heptan-2-yl)quinazolin-2-amine] | 218 |
| Cc1c(Nc2ncc3cc(Cl)c(N4CCN(C5COCC5O)CC4)nc3n2)cnn1C1CC1 (single isomer, unassigned) [Ex-16.4, (3S,4S) or (3R,4R)-4-(4-{6-chloro-2-[(1-cyclopropyl-5-methyl-1H-pyrazol-4-yl)amino]pyrido[2,3-d]pyrimidin-7-yl}piperazin-1-yl)oxolan-3-ol] | 83.8 |
| Cc1cc2cnc(Nc3cnn(C4CC4)c3Cl)nc2cc1N1CCN(C2(C)COC2)CC1 [Ex-5.10, N-(5-chloro-1-cyclopropyl-1H-pyrazol-4-yl)-6-methyl-7-[4-(3-methyloxetan-3-yl)piperazin-1-yl]quinazolin-2-amine] | 5.67 |
| C[C@H]1COC(=O)N1c1ccc2cnc(Nc3cc(C(C)(C)C)ns3)nc2c1 [Ex-8.10, (4S)-3-{2-[(3-tert-butyl-1,2-thiazol-5-yl)amino]quinazolin-7-yl}-4-methyl-1,3-oxazolidin-2-one] | 0.625 |
| OC1COCC1N1CCN(c2cc3nc(Nc4cnn(C(F)F)c4)ncc3cc2Cl)CC1 (single isomer, unassigned) [Ex-6.46, (3S,4S) or (3R,4R) 4-(4-(6-chloro-2-((1-(difluoromethyl)-1H-pyrazol-4-yl)amino)quinazolin-7-yl)piperazin-1-yl)tetrahydrofuran-3-ol] | 18.4 |
| Cc1c(Nc2ncc3cc(Cl)c(N4CCN(C5COCC5O)CC4)cc3n2)cnn1C1CC1(F)F (single isomer, unassigned) [Ex-6.44, (3S,4S) or (3R,4R) 4-[4-(6-chloro-2-{[1-(2,2-(R) or (S)difluorocyclopropyl)-5-methyl-1H-pyrazol-4-yl]amino}quinazolin-7-yl)piperazin-1-yl]oxolan-3-ol] | 6.89 |
| Cc1cc2cnc(Nc3cnn(C4CC4(F)F)c3Cl)nc2cc1N1CCN(C2(C)COCC2O)CC1 (single isomer, unassigned) [Ex-5.5, (3S,4S) or (3R,4R) 4-(4-(2-((5-chloro-1-(2,2-(R) or (S)difluorocyclopropyl)-1H-pyrazol-4-yl)amino)-6-methylquinazolin-7-yl)piperazin-1-yl)-4-methyltetrahydrofuran-3-ol] | 0.42 |
| CC1CCC12CN(c1cc3nc(Nc4cnn(C5(C)CC5)c4Cl)ncc3cc1Cl)C2 (single isomer, unassigned) [Ex-4.25, (R) or (S) 6-chloro-N-[5-chloro-1-(1-methylcyclopropyl)-1H-pyrazol-4-yl]-7-(5-methyl-2-azaspiro[3.3]heptan-2-yl)quinazolin-2-amine] | 570 |
| Cc1cc(Nc2ncc3cc(Cl)c(N4CCN(C5(C)COCC5O)[C@@H](C)C4)cc3n2)n(C2CC2)n1 (single isomer, unassigned) [Ex-13.9, 4-((S or R) (3S,4S) or (3R,4R)-4-(6-chloro-2-((1-cyclopropyl-3-methyl-1H-pyrazol-5-yl)amino)quinazolin-7-yl)-2-methylpiperazin-1-yl)-4-methyltetrahydrofuran-3-ol] | 97.5 |
